Results as given in patent publication US6689357B2, “Non-obligate predatory bacterium Burkholderia casidae and uses thereof” (Virginia Tech Intellectual Properties, Inc., priority 1997, dated 2004).
≈ marks a conversion by molar mass, not a printed value.

Tested on: B. casidae strain 2.2N
Assay: microbe, parasite or virus in culture
Type: cell-based, Burkholderia casidae
Settings: for MIC: Burkholderia, 2.2N, read-out: Minimal Inhibitory Concentration; for strain 2.2N resistant or susceptible to the antibiotic: Sceptor Pseudomonas/Resistant MIC Panel; for Minimal Inhibitory Concentration: against B. casidae strain 2.2N

Compound | MIC | strain 2.2N resistant or susceptible to the antibiotic | Minimal Inhibitory Concentration
NCC[C@H](O)C(=O)N[C@@H]1C[C@H](N)[C@@H](O[C@H]2O[C@H](CN)[C@@H](O)[C@H](O)[C@H]2O)[C@H](O)[C@H]1O[C@H]1O[C@H](CO)[C@@H](O)[C@H](N)[C@H]1O [Amikacin] | > 64 mg/L | resistant | 
CCN1CCN(C(=O)N[C@@H](C(=O)N[C@@H]2C(=O)N3C(C(=O)O)=C(CSc4nnnn4C)CS[C@H]23)c2ccc(O)cc2)C(=O)C1=O [Cefoperazone] | > 16 mg/L | resistant | 
CO/N=C(\C(=O)N[C@@H]1C(=O)N2C(C(=O)O)=C(COC(C)=O)CS[C@H]12)c1csc(N)n1 [Cefotaxime] | 64 mg/L (≈ 141 µM) | susceptible | 
CC(C)(O/N=C(\C(=O)N[C@@H]1C(=O)N2C(C(=O)[O-])=C(C[n+]3ccccc3)CS[C@H]12)c1csc(N)n1)C(=O)O [Ceftazimine] |  | susceptible | 8 micrograms/ml
CO/N=C(\C(=O)N[C@@H]1C(=O)N2C(C(=O)O)=CCS[C@H]12)c1csc(N)n1 [Ceftizoxime] | 16 mg/L (≈ 41.7 µM) | susceptible | 
CO/N=C(\C(=O)N[C@@H]1C(=O)N2C(C(=O)O)=C(CSc3nc(=O)c(=O)[nH]n3C)CS[C@H]12)c1csc(N)n1 [Ceftriaxone] | 128 mg/L (≈ 231 µM) | susceptible | 
C[C@@H](O)[C@H]1C(=O)N2C(C(=O)O)=C(SCCN=CN)C[C@H]12 [Imipenem] | 16 mg/L (≈ 53.4 µM) |  | 
CN(C)[C@@H]1C(O)=C(C(N)=O)C(=O)[C@@]2(O)C(O)=C3C(=O)c4c(O)cccc4[C@@](C)(O)[C@H]3C[C@@H]12 [Tetracycline] | > 8 mg/L |  | 
NC[C@H]1O[C@H](O[C@H]2[C@H](O)[C@@H](O[C@H]3O[C@H](CO)[C@@H](O)[C@H](N)[C@H]3O)[C@H](N)C[C@@H]2N)[C@H](N)C[C@@H]1O [Tobramycin] | > 16 mg/L | resistant | 
O=C(O)c1cn(C2CC2)c2cc(N3CCNCC3)c(F)cc2c1=O [ciprofloxacin] |  | susceptible | 
Gentamycin |  | resistant | >16 micrograms/ml
Tricarcillin/Clavulinic Acid |  | resistant | >128/2
Trimethoprim/Sulfamethoxazole |  | susceptible | 4/76
